The subject of data set [1] is μpatterned hiPSC-CMs. Nature of the data set: movement of LifeAct-labeled myofibrils in beating μpatterned hiPSC-CMs (cross-correlation, Ncorr). Format: cell-based, human. To be noted: 1 μM and 10 nM omecamtiv mecarbil (FIG. 11).
Data set [2] deals with μpatterned hiPSC-CMs. Nature of the data set: cell movement from brightfield videos of beating μpatterned hiPSC-CMs (cross-correlation within ROI). As to conditions: for aδ (temporal asynchronicity) / d (displacement) / VR (peak velocity of relaxation) / VC (peak velocity of contraction) / aθ (spatial asynchronicity): brightfield, single cell. Format: cell-based, human. As to the method: We imaged the movement of beating hiPSC-CMs and the displacement of fluorescent microbeads embedded in polyacrylamide substrates with a Zeiss Axiovert 200M inverted microscope equipped with a Zeiss Axiocam MRm CCD camera. This microscope also contained an environmental chamber (PeCon) to set temperature at 37° C. Unless otherwise noted, we acquired microscopy videos while electrically pacing hiPSC-CMs with 10 ms-wide bipolar pulses of electric-field stimulation at 10-15 V with a frequency of 1 Hz (Myopacer, lonOptix). To induce contractile changes in hiPSC-CMs, we added drugs known to affect CM contractile machinery to the culture medium. We analyzed the mechanical output of cells after adding drugs. […] We exposed single cells to concentrations of 0.1 μM and then 1 μM of isoproterenol (Sigma, Saint Louis, Mo.) to test how the contractile activity of each cell varied after adding different amounts of isoproterenol to the medium. Omecamtiv mecarbil (Adooq Bioscience, Irvine, Calif.) was also added to the cell culture medium at 10 nM or 0.1 μM to detect different variations in the contractile response of hiPSC-CMs after adding one of these concentrations. We acquired videos of single beating hiPSC-CMs imaged with differential interference contrast microscopy at frame rates higher than 30 fps for a time between 4 and 10 s. We used MATLAB (R2014b version, Mathworks) to convert pixels of each frame to microns. Zeiss files (.czi) contained information on the pixel dimensions and were imported into MATLAB using the Bioformats package. ([…] 2010) We also confirmed the software calibration with calibration slides (Electron Microscopy Sciences). For each video of a beating single cell, we selected a region of interest (ROI) around the borders of the cell and analyzed average displacements within this ROI (FIG. 1B). For this purpose, we selected a baseline frame, within all the frames of the video, which represented the relaxed state of the cell and calculated average displacement within the ROI for the remaining frames relative to the baseline frame. As noted bellow, this procedure was automated. We then calculated displacements from microscopy videos with cross-correlation approaches: digital image correlation (DIC) and particle image velocimetry (PIV) approaches. […] Cross-correlation is done between sub-blocks of the image and the highest correlation indicates the maximum likelihood that blocks match. We tested the following cross-correlation algorithms: PIVIab, ImageJ PIV (Tseng 2012) and Ncorr. PIVIab and Ncorr were written in MATLAB, while ImageJ PIV is a plugin for ImageJ (NIH). Ncorr generally performs better, but uses more computational time. (Blaber 2015) We measured two parameters of asynchronicity of contractile movement within the ROI: spatial asynchronicity (aθ) of contractile movement and temporal asynchronicity (aδ) of contractile movement. Spatial synchronicity occurs when the different regions of the cell move along the same directions and temporal synchronicity occurs when all the regions of the cell move at the same time. To calculate aθ, we first computed the direction of movement (θ) for every movement vector of different regions i inside the ROI (FIG. 1B) at each frame as defined by For the calculation of aδ, we first determined the mean offset time b between the peaks of the displacement curves of different regions i (dcurrent) in the ROI and the peaks of the mean displacement ([…] occurs within the same ROI by mean, cross-correlation between the two curves, then refined this offset result using main peaks only (FIG. 8A): […]

For data set [3], the system named is CMs. To be noted: 0.1 μM isoproterenol (Butler 2015); cited from earlier work.
The test system of data set [4] is hiPSC-CMs. To be noted: 1 μM isoproterenol (Yokoo 2009); cited from earlier work.

Each structure is given as a SMILES string.

With `COC(=O)N1CCN(Cc2cccc(NC(=O)Nc3ccc(C)nc3)c2F)CC1` [omecamtiv mecarbil], in data set [1], the “myofibril damage at other concentrations” value is reported as “Such level of damage was also observed”. In addition, the “acute dmax from brightfield videos” value in data set [2] (0.1 μM omecamtiv mecarbil, single cell (FIG. 6H)) is recorded as “considerable acute increase”. Moreover, the “absolute values of VC and VR from brightfield videos, acute” value in data set [2] (0.1 μM omecamtiv mecarbil, single cell (FIG. 6I)) is recorded as “increase”. Besides, the “aδ (temporal asynchronicity)” value in data set [2] (OM 0.1 μM (FIG. 6), row 'acute', no OM: 0.03) was 0.21 s; in data set [2] (OM 0.1 μM (FIG. 6), row 'chronic', no OM: 0.03), 0.04 s. Moreover, the “d (displacement)” value in data set [2] (OM 0.1 μM (FIG. 6), row 'acute', no OM: 0.79) stood at 0.18 μm; in data set [2] (OM 0.1 μM (FIG. 6), row 'chronic', no OM: 0.79), 1.05 μm. Further, the “VR (peak velocity of relaxation)” value was 0.54 μm/s in data set [2] (OM 0.1 μM (FIG. 6), row 'acute', no OM: 2.87) and 3.42 μm/s in data set [2] (OM 0.1 μM (FIG. 6), row 'chronic', no OM: 2.87). The “VC (peak velocity of contraction)” value stood at 0.71 μm/s in data set [2] (OM 0.1 μM (FIG. 6), row 'acute', no OM: 3.53) and 4.35 μm/s in data set [2] (OM 0.1 μM (FIG. 6), row 'chronic', no OM: 3.53). Besides, the “aθ (spatial asynchronicity)” value is recorded as 70.1 ° in data set [2] (OM 0.1 μM (FIG. 6), row 'acute', no OM: 44.5) and 68.8 ° in data set [2] (OM 0.1 μM (FIG. 6), row 'chronic', no OM: 44.5).
Consider `CC(C)NCC(O)c1ccc(O)c(O)c1` (stereo not drawn) [isoproterenol], for which, in data set [3], the “inotropic and chronotropic response in CMs” value is “positive inotropic and positive chronotropic responses”. Further, in data set [4], the beat rate result was “increase”. In addition, the mechanical output result in data set [4] was “decrease”. The “aδ (temporal asynchronicity)” value in data set [2] (ISO 0.1 (μM per FIG. 4), no ISO: 0.01) turned out to be 0.02 s; in data set [2] (ISO 1 (μM per FIG. 4), no ISO: 0.01), 0.02 s. Also, the “d (displacement)” value in data set [2] (ISO 0.1 (μM per FIG. 4), no ISO: 1.09) came to 1.3 μm; in data set [2] (ISO 1 (μM per FIG. 4), no ISO: 1.09), 0.68 μm. In addition, the “VR (peak velocity of relaxation)” value in data set [2] (ISO 0.1 (μM per FIG. 4), no ISO: 3.78) came out at 5.37 μm/s; in data set [2] (ISO 1 (μM per FIG. 4), no ISO: 3.78) it was 3.65 μm/s. For the same compound, the “VC (peak velocity of contraction)” value in data set [2] (ISO 0.1 (μM per FIG. 4), no ISO: 6.85) was found to be 9.3 μm/s; in data set [2] (ISO 1 (μM per FIG. 4), no ISO: 6.85) it was 5.34 μm/s. Besides, the “aθ (spatial asynchronicity)” value in data set [2] (ISO 0.1 (μM per FIG. 4), no ISO: 31.4) was determined as 75.5 °; in data set [2] (ISO 1 (μM per FIG. 4), no ISO: 31.4) it was 25.3 °. Besides, the “variations of d, VC, VR, t̂ from brightfield videos between isoproterenol concentrations” value in data set [2] (six cells, 0.1 and 1 μM isoproterenol (FIG. 9)) is recorded as “did not yield differences in variations of parameters with statistical significance”.

The values are drawn from US20180106782A1, “HIGH THROUGHPUT CARDIOTOXICITY SCREENING PLATFORM” (The Board of Trustees of the Leland Stanford Junior …, priority 2016, published 2018).
